Test results: article PMC9404989, “Design and Evaluation of Short Bovine Lactoferrin-Derived Antimicrobial Peptides against Multidrug-Resistant Enterococcus faecium” (Antibiotics, 2022)
Entries after “also recorded” stand apart in the source; their conditions may differ. No end group written: not given here.

Tests used:
[1] = system: E. faecalis OG1RF; assay: MIC assay, E. faecalis OG1RF; assay type: cell-based; conditions: rifampin and fusidic acid resistant
Experimental: (§1) To determine the MICs of peptides, we used the broth microdilution method described by the Clinical and Laboratory Standards Institute. We made serial dilutions of 10× concentration (10 µL) for each peptide in duplicates in 96-well plates (Cat No. 3595, Corning, New York, NY, USA). We added 90 µL of logarithmic-phase bacteria at 5 × 10^5 CFU/mL (in BHI media) to the peptides and then incubated the plates at 37 °C for 18 h. We measured the OD600 absorbance readings using the Spectra Max i3x spectrophotometer (Molecular Devices, San Jose, CA, USA) and determined the MIC as the peptide concentration that inhibits the growth of bacteria.

[2] = HPLC retention time on C18 reverse-phase column; assay type: physicochemical
From the text: Table 1 Physical parameters and the minimal inhibitory concentration (µg/mL) of designed peptides against E. faecium. | column: rT ^f (min)

[3] = system: E. faecium strain C68 established biofilms; assay type: cell-based, Enterococcus faecium; conditions: for established biomass reduced: at 32 µg/mL, 24 h established biofilms
Experimental: We prepared exponential cultures of E. faecium strain C68 (adjusted to 1 × 10^8 CFU/mL) in BHI media (supplemented with 0.2% glucose) from overnight grown cultures. We added 100 µL of the bacterial culture to wells of flat-bottomed 96-well polystyrene microtiter plates (Cat No. 3595, Corning, NY, USA). We then incubated the plates at 37 °C for 24 h in static conditions to allow biofilm formation. After incubation, we carefully pipetted out the media and washed the wells with PBS (Gibco, Waltham, MA, USA) to remove loosely attached planktonic cells. We treated the established biofilms in each well with 10 µL of serially diluted 10× peptide solution, followed by the addition of 90 μL of BHI media (supplemented with 0.2% glucose). The plates were incubated for another 24 h at 37 °C before processing for biomass and live-cell contents. We quantitated the concentration of peptide that disrupts 50% of established biofilms (MBEC50).

[4] = system: E. faecium E007 established biofilms; assay type: cell-based, Enterococcus faecium; conditions: for concentration killing 50% of live bacteria cells in established biofilms: strain E007, 24 h established biofilms, XTT; for established biomass disrupted: strain E007, at 32 µg/mL; for MBEC50: strain E007, biomass by CV
[5] = system: E. faecium strain C68 persister and exponential cells; assay: SYTOX Green membrane permeability assay; assay type: cell-based, Enterococcus faecium; conditions: for SYTOX membrane permeabilization of exponential cells: 16 µg/mL; for SYTOX membrane permeabilization of persister cells: peptides at 16 µg/mL, fluorescence, 1 h
Experimental: We generated E. faecium strain C68 persister cells (described in the above section) and diluted them in PBS to OD600 = 0.2. We added SYTOX Green (Molecular Probes, Life Technologies, Eugene, OR, USA) to the diluted persister suspension to a final concentration of 5 μM and incubated them for 30 min at room temperature in the dark. We added 90 µL of the dye/bacteria mixture to 10 μL of serially diluted 10× peptide concentration in a 96-well black, clear-bottom plate (Cat No. 3904, Corning, NY, USA) and recorded fluorescence on a SpectraMax i3x (Molecular Devices, San Jose, CA, USA) with excitation and emission wavelengths of 485 nm and 525 nm, respectively, for 1 h at room temperature. For comparison, we also conducted membrane permeability assays using exponential cells and followed similar protocol as described for persister cells.

[6] = system: HepG2 cells; assay: Mammalian cell cytotoxicity assay (WST-1); assay type: cell-based, human; conditions: 24 h, WST-1, triplicates
Experimental: We used liver-derived HepG2 cells to evaluate AMP cytotoxicity behavior in mammalian cells based on an established protocol. We maintained the HepG2 cells at 37 °C in 5% CO2 in Dulbecco’s Modified Eagle Medium (DMEM) (Gibco, Waltham, MA, USA) supplemented with 10% fetal bovine serum (FBS) (Gibco, Gaithersburg, MD, USA) and 1% penicillin/streptomycin (Gibco, Gaithersburg, MD, USA). Next, we harvested and resuspended the cells in a fresh medium and distributed 50 µL ([…]) in a 96-well plate containing 50 µL of serially diluted AMPs in serum and antibiotic-free DMEM and incubated the plates at 37 °C in 5% CO2 for 24 h. Before the end of the incubation period (at the 20th hour), we added 10 µL of 2-(4-iodophenyl)-3-(4-nitrophenyl)-5-(2,4-disulfophenyl)-2H-tetrazolium (WST-1) (Roche, Mannheim, Germany) to each well and monitored the reduction of WST-1 at 450 nm using a SpectraMax i3x (Molecular Devices, San Jose, CA, USA). We performed the assays in triplicates and calculated the percentage of cell survival.

[7] = system: E. faecium strain C68 on porcine skin; assay: Ex vivo porcine skin infection assay; design: species or system Enterococcus faecium; conditions: 1 × 10^6 CFU, 4 h treatment
From the text: We evaluated the efficacy of designed lactoferrin AMPs in an ex vivo porcine skin model previously described with minor modifications. We first cleaned the shaved porcine skin (Fisher Scientific, Hampton, NH, USA) with 70% ethanol and then water, and glued polyethylene tubing (5 mm) (Nalgene VWR 228-0170, Radnor, PA, USA) to the skin samples with cyanoacrylate glue (Fisher Scientific, Hampton, NH, USA). Using disposable razors, we cut each piece of skin glued to the tube and inserted it into a 12-well tissue culture plate (Falcon, Cat No. 353182). We infected each skin with 1 × 10^6 CFU of exponential or persister E. faecium strain C68 cells in a total volume of 10 µL. Following an incubation of 1 h at 37 °C, we treated the skin with 50 µL with 5L and 6L at concentrations of 10× or 1× MIC. After an additional 4 h of incubation at 37 °C, we washed each tubing well with 250 µL of PBS (pH 7.4) containing 0.05% Triton X-100 to remove bacteria. After serially diluting the bacterial sample, we counted their CFUs.

[8] = system: drug-resistant E. faecium clinical isolates; assay type: cell-based, Enterococcus faecium; conditions: strains D14, D24, D25, D29, C68 and WC176
Experimental: as §1

[9] = strain C68 established biofilms, 24 h

Row | Substance | MIC E. faecalis OG1RF [1] [µg/mL] | rT (HPLC retention time) [2] [min] | established biomass reduced [3] [%] | MBEC50 (established biomass) [3, 9] [µg/mL] | live bacteria killed within matured biofilm matrix [3, 9] [%] | concentration killing 50% of live bacteria cells in established biofilms [4] [µg/mL] | established biomass disrupted [4] [%] | MBEC50 [4] [µg/mL] | SYTOX membrane permeabilization of exponential cells [5] | SYTOX membrane permeabilization of persister cells [5] | concentration without cell death in HepG2 cells [6] [µg/mL] | bacterial load reduction, exponential cells, 1× MIC [7] | bacterial load reduction, persister cells, 1× MIC [7] [log] | bacterial load, exponential cells, 10× MIC [7] | bacterial load, persister cells, 10× MIC [7] | MIC range against clinical isolates of E. faecium [8] [µg/mL]
1 | RRWLWLRRWLWR-NH2 [Peptide 5L] | > 32 | 17.522 | 75 | 16 | 50 | 8 | 75 | 10 | enhanced membrane permeabilization | time-dependent fluorescent increment | ≥ 128 | 1 log | 1 | effectively eliminated almost all exponential cells | effectively eliminated all; also recorded: completely eliminated persister cells | 4 to 16
2 | RRWLWRLRWLWR-NH2 [Peptide 6L] | > 32 | 18.603 | 75 | 16 | – | 8 | 75 | 8 | enhanced membrane permeabilization | time-dependent fluorescent increment | ≥ 128 | 1.2 logs | 1 | effectively eliminated almost all exponential cells | completely eliminated persister cells | 4 to 16
